Drawing on US6939850B2, “Altered human interleukin-1β convertase (ICE), NEDD-2, and C. elegans ced-3 polypeptides and uses therefor” (Massachusetts Institute of Technology, priority 1992, dated 2005), this text covers motoneuron death for one substance.

The subject of this assay is chick spinal motoneurons. Kind of assay: Motoneuron culture deprived of muscle extract, survival. The format is cell-based. Conditions: without muscle extract, treated between 14 and 24 hours, counted after 3 days. The text has this:
A tissue culture model system that allows isolation of a relatively pure population of motoneurons whose survival is dependent on muscle extract, a potent source of target-derived trophic support, was used to test the ability of peptide inhibitors of ICE to block motoneuron cell death (Milligan et al., J Neurobiology 25:1005-1016 (1994) and Block-Gallego et al., Development. 111:221-232 (1991)). The death of motoneurons deprived of trophic support in vitro requires new gene expression and occurs by apoptosis (Milligan et al., J. Neurobiology 25:1005-1016 (1994)). Motoneurons deprived of trophic support at the time of plating become irreversibly committed to undergo cell death after 16-18 hours (Milligan et al., J. Neurobiology 25:1005-1016 (1994)). […] When motoneurons are treated with peptide inhibitors in the absence of muscle extract for three days and subsequently supplemented on day three with muscle extract, they continue to survive, and by six days appear as healthy and differentiated as the motoneurons that were continuously supplied with muscle extract (FIGS. 12A, 12B, 15G). Thus, motoneurons rescued for 3 days by ICE inhibitors remain capable of responding to trophic factors present in muscle extract.
Methods for motoneuron cultures. […]

In the case of “Acetyl-Tyr-Val-Ala-Asp-aldehyde [Ac-YVAD-CHO]”, the motoneuron death entry was “inhibitory effects on motoneuron death”.
